# From patent US7276510B2, “HIV replication inhibitors” (Janssen Pharmaceutica, Inc., priority 2000, dated 2007)
# Structures can show the parent of a compound that is named as a salt.
# Key:
# HIV-infected MT-4 cells = experiment: Inhibition of the HIV-induced cytopathic effect in MT-4 cells (MTT); format: cell-based; details: for SI (selectivity index, ratio of CC50 to IC50): CC50/IC50 in MT-4 cells; for IC50: Human immunodeficiency virus 1, MT4, read-out: IC50 (50% inhibitory concentration; dose achieving 50% protection), HIV-infected MT-4 cells, MTT, OD 540 nm
# Protocol: (§1) A rapid, sensitive and automated assay procedure was used for the in vitro evaluation of anti-HIV agents. An […] T4-cell line, MT-4, which was previously shown (Koyanagi et al., Int. J. Cancer, 36, 445-451, 1985) to be highly susceptible to and permissive for HIV infection, served as the target cell line. Inhibition of the HIV-induced cytopathic effect was used as the end point. The viability of both HIV- and mock-infected cells was assessed spectrophotometrically via the in situ reduction of 3-(4,5-dimethylthiazol-2-yl)-2,5-diphenyltetrazolium bromide (MTT). […] The percent protection achieved by the compound in HIV-infected cells was calculated by the following formula:
# (§2) [formula] whereby (ODT)HIV is the optical density measured with a given concentration of the test compound in HIV-infected cells; (ODC)HIV is the optical density measured for the control untreated HIV-infected cells; (ODC)MOCK is the optical density measured for the control untreated mock-infected cells; all optical density values were determined at 540 nm. […] The ratio of CC50 to IC50 was defined as the selectivity index (SI).
# [1] = Cytotoxicity in mock-infected MT-4 cells (MTT); format: cell-based; details: human, OD 540 nm
# Protocol: as §1, §2
Compound,melting point,"SI (selectivity index, ratio of CC50 to IC50) (HIV-infected MT-4 cells)",IC50 (HIV-infected MT-4 cells) [nM],CC50 [1] [nM]
N#Cc1ccc(Nc2nc(Cc3c(Cl)cccc3Cl)cc(-n3ccnc3)n2)cc1 [Compound 39],275 to 285 °C,,,
N#Cc1ccc(Nc2nc(S)nc(Cc3c(Cl)cccc3Cl)n2)cc1 [Compound 6],254 to 255 °C,,,
"N#Cc1ccc(Nc2nc(CO)c(Br)c(Oc3c(Br)cc(C#N)cc3Br)n2)cc1 [Compound 16, 4-[[[5-bromo-4-(4-cyano-2,6-dibromophenoxy)-6-hydroxymethyl]2-pyrimidinyl]amino]benzonitrile]",,>39841,25.1,> 100000
"Cc1cc(C)c(Nc2nc(Nc3ccc(C#N)cc3)nc(C(N)=O)n2)c(C)c1 [Compound 19, 6-[(4-cyanophenyl)amino]-4-[(2,4,6-trimethylphenyl)amino]-1,3,5-triazine-2-carboxamide]",,3162,1.26,3980
COC(=O)c1cc(Oc2c(C)cc(C#N)cc2C)nc(Nc2ccc(C#N)cc2)n1 [Compound 71],258 to 259 °C (dec.),>3984,25.1,> 100000
N#Cc1ccc(Nc2nc(Cl)nc(Oc3c(Cl)cc(Cl)cc3Cl)n2)cc1 [Compound 72],238 to 239 °C,,,
N#Cc1ccc(Nc2nc(Cc3c(Cl)cccc3Cl)nc(-n3[nH]nnc3=N)n2)cc1 [Compound 46],302 to 304 °C,,,
"N#Cc1ccc(Nc2nc(Cl)nc(Cc3c(Cl)cccc3Cl)n2)cc1 [Compound 1, 4-[[4-chloro-6-[(2,6-dichlorophenyl)methyl]-1,3,5-triazin-2-yl]amino]-benzonitrile]",243 to 244 °C,,,
N#Cc1ccc(Nc2nc(C#N)nc(Cc3c(Cl)cccc3Cl)n2)cc1 [Compound 5],221 to 230 °C,501,19.9,10000
Cc1cc(C)c(Nc2cc(C(=O)N(C)C)nc(Nc3ccc(C#N)cc3)n2)c(C)c1 [Compound 66],,19950,1.58,31600
CNC(=O)c1cc(Nc2c(C)cc(C)cc2C)nc(Nc2ccc(C#N)cc2)n1 [Compound 63],,7946,5.01,39800
CNCc1nc(Nc2ccc(C#N)cc2)nc(Oc2c(C)cc(C#N)cc2C)c1Br [Compound 74],223 to 224 °C,,,
COc1nc(Cc2c(Cl)cccc2Cl)nc(Nc2ccc(C#N)cc2)n1 [Compound 9],198 to 199 °C,>10000,10,> 100000
"Cc1cc(C)c(Nc2nc(Nc3ccc(C#N)cc3)nc(C(N)=O)c2Br)c(C)c1 [Compound 98, 5-bromo-2-[(4-cyanophenyl)amino]-6-[(2,4,6-trimethylphenyl)amino]-4-pyrimidine carboxamide]",,15861,3.16,50100
Cc1cc(C#N)cc(C)c1Oc1nc(Cl)nc(Nc2ccc(C#N)cc2)n1 [Compound 60],260 to 265 °C,,,
CSc1nc(Cc2c(Cl)cccc2Cl)nc(Nc2ccc(C#N)cc2)n1 [Compound 7],184 to 185 °C,1990,20,39800
COc1ccc(Nc2nc(Oc3c(C)cc(C#N)cc3C)cc(C(N)=O)n2)cn1 [Compound 56],,1585,63.1,> 100000
N#Cc1ccc(Nc2nc(CO)cc(Oc3c(Br)cc(C#N)cc3Br)n2)cc1 [Compound 14],,2500,4,> 10000
COCc1cc(Nc2cc(C)c(F)cc2Cl)nc(Nc2ccc(C#N)cc2)n1 [Compound 3],213 to 214 °C,>1996,50.1,> 100000

Compound,melting point,"SI (selectivity index, ratio of CC50 to IC50) (HIV-infected MT-4 cells)",IC50 (HIV-infected MT-4 cells) [nM],CC50 [1] [nM]
C[S+]([O-])c1nc(Cc2c(Cl)cccc2Cl)nc(Nc2ccc(C#N)cc2)n1 (centres unmarked) [Compound 8],219 to 221 °C,,,
COC(=O)c1cc(Nc2c(C)cc(C)cc2C)nc(Nc2ccc(C#N)cc2)n1 [Compound 62],,1261,6.3,7940
Cc1cc(C#N)cc(C)c1Oc1nc(Nc2ccc(C#N)cc2)nc(CCl)c1Br [Compound 73],238 to 240 °C,,,
N#Cc1ccc(Nc2nc(Cc3c(Cl)cccc3Cl)nc(N3CC(O)CO3)n2)cc1 (centres unmarked) (as salt: trifluoroacetate) [Compound 11],175 °C,,,
N#Cc1ccc(Nc2nc(Cc3c(Cl)cccc3Cl)nc(N3C(=O)CCCC3=O)n2)cc1 [Compound 37],278 to 282 °C,,,
"Cc1cc(C#N)cc(C)c1Oc1nc(Nc2ccc(C#N)cc2)nc(CO)c1Br [Compound 13, 4-[[[5-bromo-4-(4-cyano-2,6-dimethylphenoxy)-6-hydroxymethyl]-2-pyrimidinyl]amino]benzonitrile]",,>25000,4,> 100000
NC(=O)c1ccc(Nc2nc(Cc3c(Cl)cccc3Cl)nc(C(N)=O)n2)cc1 [Compound 40],287 to 295 °C,,,
Clc1cccc(Cl)c1Cc1nc(Nc2ccc(-c3nnn[nH]3)cc2)nc(-c2nnn[nH]2)n1 [Compound 42],249 to 252 °C,,,
C=CCONc1nc(Cc2c(Cl)cccc2Cl)nc(Nc2ccc(C#N)cc2)n1 [Compound 43],,3981,15.8,63100
"COCc1nc(Nc2ccc(C#N)cc2)nc(Oc2c(C)cc(C#N)cc2C)c1Br [Compound 12, 4-[[[5-bromo-4-(4-cyano-2,6-dimethylphenoxy)-6-methoxymethyl]-2-pyrimidinyl]amino]benzonitrile]",198 to 199 °C,>25000,4,> 100000
COCc1cc(Oc2c(C)cc(C#N)cc2C)nc(Nc2ccc(C#N)cc2)n1 [Compound 2],203 to 204 °C,31621,1.58,50100
COc1ccc(Nc2nc(Oc3c(C)cc(C#N)cc3C)cc(C(=O)N(C)C)n2)cn1 [Compound 65],,1000,79.4,79400
N#Cc1ccc(Nc2nc(O)nc(Cc3c(Cl)cccc3Cl)n2)cc1 [Compound 10],> 300 °C,,,
C=CCONc1nc(Cc2c(Cl)cccc2Cl)nc(Nc2ccc(C#N)cc2)n1 (as salt: trifluoroacetate) [Compound 43],225 to 227 °C,,,
"Cc1cc(C)c(Nc2cc(C(N)=O)nc(Nc3ccc(C#N)cc3)n2)c(C)c1 [Compound 61, 2-[(4-cyanophenyl)amino]-6-[(2,4,6-trimethylphenyl)amino]-4-pyrimidine carboxamide]",,19968,2.51,50100
N#Cc1ccc(Nc2nc(Cc3c(Cl)cccc3Cl)nc(N3CCC(=O)O3)n2)cc1 [Compound 35],,794,63.1,50100
N#Cc1ccc(Nc2nc(F)nc(Cc3c(Cl)cccc3Cl)n2)cc1 [Compound 49],199 to 201 °C,,,
N#Cc1ccc(Nc2nc(Cc3c(Cl)cccc3Cl)nc(N3CC(O)CO3)n2)cc1 (centres unmarked) [Compound 11],,25138,2.51,63100
